Measurements taken from patent US6465501B2, “Azolidines as β3 adrenergic receptor agonists” (Wyeth, priority 2000, dated 2002).
Structures can show the parent of a compound that is named as a salt.

Row | Compound | melting point
1 | CN1C(=O)SC(Nc2ccc(CCNC[C@H](O)COc3ccc(OCc4ccccc4)cc3)cc2)C1=O (stereo partly drawn) (as salt: HBr) [Example 2, 5-{4-[2-({(2 S)-3-[4-(Benzyloxy}phenoxy]-2-hydroxypropyl}amino)ethyl]anilino}-3-methyl-1,3-thiazolidine-2,4-dione] | 165 to 167 °C
2 | O=C1NC(=O)C(Nc2ccc(CCNC[C@H](O)COc3ccc(F)cc3)cc2)S1 (stereo partly drawn) (as salt: salt) (hydrate or solvate) [Example 8, 5-[4-(2-{[(2 S)-3-(4-Fluorophenoxy)-2-hydroxypropyl]amino}ethyl)anilino]-1,3-thiazolidine-2,4-dione] | 55 °C
3 | O=C1NC(=O)C(Nc2ccc(CCNC[C@H](O)COc3ccccc3)cc2)S1 (stereo partly drawn) (as salt: salt) (hydrate or solvate) [Example 9, 5-[4-(2-{[(2 S)-2-Hydroxy-3-phenoxypropyl]amino}ethyl)anilino]-1,3-thiazolidine-2,4-dione] | 55 °C
4 | COc1ccc(OC[C@@H](O)CNCCc2ccc(NC3SC(=O)NC3=O)cc2)cc1 (stereo partly drawn) (as salt: salt) (hydrate or solvate) [Example 10, 5-[4-(2-{[(2 S)-2-Hydroxy-3-(4-methoxyphenoxy)propyl]amino}ethyl)anilino]-1,3-thiazolidine-2,4-dione] | 56 °C
5 | O=C1NC(=O)C(Nc2ccc(CCNC[C@H](O)COc3cccc(O)c3)cc2)S1 (stereo partly drawn) (as salt: salt) (hydrate or solvate) [Example 12, 5-[4-(2-{[(2 S)-2-Hydroxy-3-(3-hydroxyphenoxy)propyl]amino}ethyl)anilino]-1,3-thiazolidine-2,4-dione] | 65 °C
6 | O=C1NC(=O)C(Nc2ccc(CCNC[C@H](O)COc3cccc4[nH]c5ccccc5c34)cc2)S1 (stereo partly drawn) (as salt: salt) (hydrate or solvate) [Example 13, 5-[4-(2-{[(2 S)-3-(9 H-Carbazol-4-yloxy)-2-hydroxypropyl]amino}ethyl)anilino]-1 ,3-thiazolidine-2,4-dione] | 140 °C
7 | CS(=O)(=O)Nc1cc([C@H](O)CNCCc2ccc(NC3SC(=O)NC3=O)cc2)ccc1O (stereo partly drawn) (as salt: salt) (hydrate or solvate) [Example 14, N{5-[(1 S)-2-({4-[(2,4-Dioxo-1,3-thiazolidin-5-yl)amino]phenethyl}amino)-1-hydroxyethyl]-2-hydroxyphenyl}methanesulfonamide] | 130 °C
8 | O=C1NC(=O)C(Nc2ccc(CCNC[C@H](O)COc3ccc4occc4c3)cc2)S1 (stereo partly drawn) (as salt: salt) (hydrate or solvate) [Example 15, 5-[4-(2-{[(2 S)-3-(1-Benzofuran-5-yloxy)-2-hydroxypropyl]amino}ethyl)anilino]-1,3-thiazolidine-2,4-dione] | 50 °C
9 | CN(c1ccc(CCNC[C@H](O)COc2ccccc2)cc1)C1SC(=O)NC1=O (stereo partly drawn) (as salt: salt) (hydrate or solvate) [Example 17, 5-[4-(2-{[(2 S)-2-Hydroxy-3-phenoxypropyl]amino}ethyl)(methyl)anilino]-1,3-thiazolidine-2,4-dione.] | 58 °C
10 | CC(Cc1ccc(NC2SC(=O)NC2=O)cc1)NC[C@H](O)c1cccc(Cl)c1 (stereo partly drawn) (as salt: salt) (hydrate or solvate) [Example 18, 5-[4-(2-{[(2 R)-2-(3-Chlorophenyl)-2-hydroxyethyl]amino}propyl)anilino]-1,3-thiazolidine-2,4-dione] | 83 to 85 °C
11 | O=C1NC(=O)C(Nc2ccc(CCNC[C@H](O)COc3ccc(Oc4ccccc4)cc3)cc2)S1 (stereo partly drawn) (as salt: salt) [Example 1, 5-[4-(2-{[(2 S)-2-Hydroxy-3-(4-phenoxyphenoxy)propyl]amino}ethyl)anilino]-1,3-thiazolidine-2,4-dione] | 72 to 74 °C
12 | O=C1NC(=O)C(Nc2ccc(CCNC[C@H](O)c3ccccc3)cc2)S1 (stereo partly drawn) (as salt: salt) [Example 7, 5-[4-(2-{[(2 R)-2-Hydroxy-2-phenylethyl]amino}ethyl)anilino]-1,3-thiazolidine-2,4-dione] | 55 °C
13 | O=C1NC(=O)C(Nc2ccc(CCNC[C@@H](O)COc3cccc4[nH]c(=O)[nH]c34)cc2)S1 (stereo partly drawn) (as salt: salt) [Example 19, 5-{4-[2-({(2 R)-2-Hydroxy-3-[(2-oxo-2,3-di hydro-1 H-benzimidazol-4-yl)oxy]propyl}amino)ethyl]anilino}-1,3-thiazolidine-2,4-dione] | 172 °C
14 | O=C1NC(=O)C(Nc2ccc(CCNC[C@H](O)COc3ccc4ccccc4c3)cc2)S1 (stereo partly drawn) (hydrate or solvate) [Example 21, 5-(4-{2-[(2 S)-2-Hydroxy-3-(naphthalen-2-yloxy)-propylamino]-ethyl}-phenylamino)-thiazolidine-2,4-dione] | 90 to 91 °C

Now from value to molecule:

Row | melting point | Compound
15 | 50 to 52 °C | O=C1NC(=O)C(N(Cc2ccc(Br)cc2)c2ccc(CCNC[C@H](O)COc3ccc(OCc4ccccc4)cc3)cc2)S1 (stereo partly drawn) (as salt: salt) [Example 25, 5-[(4-{2-[(2 S)-3-(4-Benzyloxy-phenoxy)-2-hydroxy-propylamino]-ethyl}-phenyl)-(4-bromo-benzyl)-amino]-thiazolidine-2,4-dione]
16 | 51 to 53 °C | CN(c1ccc(CCNC[C@H](O)COc2ccc(OCc3ccccc3)cc2)cc1)C1SC(=O)NC1=O (stereo partly drawn) (as salt: salt) [Example 26, 5-[(4-{2-[(2 S)-3-(4-Benzyloxy-phenoxy)-2-hydroxy-propylamino]-ethyl}-phenyl)-methyl-amino]-thiazolidine-2,4-dione]
17 | 61 to 62 °C | O=C1NC(=O)C(Nc2ccc(CCNCC(O)COc3cccc4ccccc34)cc2)S1 (stereo not drawn) (hydrate or solvate) [Example 23, 5-(4-{2-[2-Hydroxy-3-(naphthalen-1-yloxy)-propylamino]-ethyl}-phenylamino)-thiazolidine-2,4-dione]
18 | 65 °C (dec.) | O=C1NC(=O)C(Nc2ccc(CCNC[C@H](O)COc3ccc4c(c3)OCO4)cc2)S1 (stereo partly drawn) (hydrate or solvate) [Example 24, 5-(4-{2-[(2 S)-3-(Benzo[1,3]dioxol-5-yloxy)-2-hydroxy-propylamino]-ethyl}-phenylamino)-thiazolidine-2,4-dione]
19 | 99 to 101 °C | O=C1NC(=O)C(N(CC#Cc2ccc(F)cc2)c2ccc(CCNC[C@H](O)COc3ccc(OCc4ccccc4)cc3)cc2)S1 (stereo partly drawn) (hydrate or solvate) [Example 27, 5-[(4-{2-[(2 S)-3-(4-Benzyloxy-phenoxy)-2-hydroxy-propylamino]-ethyl}-phenyl)-[3-(4-fluoro-phenyl)-prop-2-ynyl]-amino}-thiazolidine-2,4-dione]
20 | 79 °C (dec.) | O=C1NC(=O)C(N(Cc2ccc(Br)cc2)c2ccc(CCNC[C@H](O)COc3ccc(O)cc3)cc2)S1 (stereo partly drawn) (hydrate or solvate) [Example 28, 5-[(4-Bromo-benzyl)-(4-{2-[(2 S)-2-hydroxy-3-(4-hydroxy-phenoxy)-propylamino]-ethyl}-phenyl)-amino]-thiazolidine-2,4-dione]
21 | 52 to 54 °C | O=C1NC(=O)C(N(Cc2ccc(Br)cc2)c2ccc(CCNC[C@H](O)COc3ccccc3)cc2)S1 (stereo partly drawn) (hydrate or solvate) [Example 29, 5-((4-Bromo-benzyl)-{4-[2-((2 S)-2-hydroxy-3-phenoxy-propylamino)-ethyl]-phenyl}-amino)-thiazolidine-2,4-dione]
